# Results: patent US20100222396A1 (Novartis AG, priority 2009, published 2010)
# Experiments:
# [1] = target: T1, human orexin 2 receptor (hOx2R) (Homo sapiens, UniProt O43614); assay: Radioligand binding assay ([125I]orexin A competition), hOx2R; conditions: CHO or HEK cell membranes, 1 h room temperature
# T1 construct: expressed in transfected cells
# T1 sequence (O43614 1-444): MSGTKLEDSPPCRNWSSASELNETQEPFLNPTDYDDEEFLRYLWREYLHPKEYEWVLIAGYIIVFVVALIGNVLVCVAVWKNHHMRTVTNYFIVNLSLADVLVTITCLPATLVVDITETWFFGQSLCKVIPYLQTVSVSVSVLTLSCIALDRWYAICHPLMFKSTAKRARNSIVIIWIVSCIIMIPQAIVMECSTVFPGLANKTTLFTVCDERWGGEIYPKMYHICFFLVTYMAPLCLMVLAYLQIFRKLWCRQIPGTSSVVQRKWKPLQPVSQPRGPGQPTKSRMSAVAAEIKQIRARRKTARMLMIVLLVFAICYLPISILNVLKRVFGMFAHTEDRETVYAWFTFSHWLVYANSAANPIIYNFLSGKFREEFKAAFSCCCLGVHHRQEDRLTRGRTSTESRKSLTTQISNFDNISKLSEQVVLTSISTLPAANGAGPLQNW
# Protocol: (§1) For crude cell membrane preparations, cells (CHO, Chinese hamster ovary or HEK, human embryonic kidney) expressing human orexin 1 or human orexin 2 receptors, were washed with HEPES (10 mM, pH 7.5), scraped off the culture plates with the same buffer, and centrifuged at 4° C. for 5 min at 2500×g. The cell pellet was either stored at −80° C. or used directly. Before the experiments, cell membranes were re-suspended in binding assay buffer (10 mM HEPES, 0.5% (w/v) bovine serum albumin, pH 7.5) by homogenisation with a Polytron homogeniser at 50 Hz for 20 s. Cell membranes were also used as made available by commercial providers.
# (§2) In initial saturation experiments (to calculate Bmax), cell homogenates (150 μl) were incubated with 25-300 pM of the radioligand ([^125I]orexin A, 50 μl), 8 concentrations in triplicates in the presence or absence Orexin A (1 μM, 50 μl) to define non specific binding. Bound radioactivity was measured, and data were analysed with the program XLFIT or Graphpad Prism. Protein concentration was determined according to the Bradford/BioRad Protein Assay Kit.
# (§3) In competition experiments, cell homogenates (150 μl) were incubated in assay buffer (10 mM HEPES, pH 7.5, 0.5% (w/v) bovine serum albumin, 5 mM MgCl2, […], and tween 0.05%) for 1 h at room temperature with about […] of the radioligand ([^125I]orexin A, 2100 Ci/mmole, 50 μl), and with various concentrations of compounds of the invention (50 μl) in triplicates; non-specific binding was determined in the presence of Orexin A (1 μM). Reactions were terminated by vacuum filtration, 3 washes of ice cold wash buffer (Tris-HCl pH 7.4/10 mM, with NaCl 154 mM). Competition data is expressed in Table 1 as Kd [μM].
# [2] = target: T2, human orexin 1 receptor (hOx1R) (Homo sapiens, UniProt O43613); assay: Radioligand binding assay ([125I]orexin A competition), hOx1R; conditions: CHO or HEK cell membranes, 1 h room temperature
# T2 construct: expressed in transfected cells
# T2 sequence (O43613 1-425): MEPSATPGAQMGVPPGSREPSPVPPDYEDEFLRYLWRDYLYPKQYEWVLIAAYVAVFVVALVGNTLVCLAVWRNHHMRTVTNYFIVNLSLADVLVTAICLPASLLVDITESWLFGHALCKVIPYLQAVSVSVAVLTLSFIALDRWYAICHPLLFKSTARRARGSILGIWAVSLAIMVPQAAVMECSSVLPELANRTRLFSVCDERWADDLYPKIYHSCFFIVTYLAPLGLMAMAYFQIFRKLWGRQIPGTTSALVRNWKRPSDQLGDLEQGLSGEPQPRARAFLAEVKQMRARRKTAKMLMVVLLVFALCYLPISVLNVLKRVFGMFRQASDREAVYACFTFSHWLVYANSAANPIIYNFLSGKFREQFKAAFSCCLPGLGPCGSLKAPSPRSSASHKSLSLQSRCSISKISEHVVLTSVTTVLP
# Protocol: as §1, §2, §3
# [3] = target: T2, human orexin 1 receptor (hOx1R); assay: Calcium accumulation in cells (FLIPR), antagonism of orexin A, hOx1R; assay type: cell-based; conditions: for Kd: cells expressing human orexin 1 receptor, IC50 vs orexin A converted by Cheng and Prusoff correction; for inhibition at 10 µM: measured at a concentration of 10 μM of compound (cells marked ^a)
# Protocol: (§4) Cells expressing human orexin 1 or human orexin 2 receptors, were seeded at 8,000 cells/well in 384 well black-walled clear bottom, poly-D-lysine coated plates. After 24 h, the medium was removed and cells were washed once with phosphate buffered saline and serum-deprived overnight in assay buffer (130 mM NaCl, 5.4 mM KCl, 1.8 mM CaCl2, 0.8 mM MgSO4, 0.9 mM NaH2PO4, 25 mM glucose, 20 mM HEPES, pH 7.4) containing bovine serum albumin (1% w/v).
# (§5) On the day of the experiment, the cells seeded in black plates were treated with assay buffer containing the Ca^2+ sensitive fluorescent dye Fluo-4-AM (2 μM), and probenecid (0.1 mM). After 1 h plates were washed twice with, and resuspended in, assay buffer containing probenecid (0.1 mM) using a multi plate washer. The plates were placed into a FLIPR II (Fluorometric Imaging Plate Reader, Molecular Devices, Sunnyvale, Calif., USA) and baseline fluorescence (fluorescence light units, FLU) was measured (5 measurements, 2 S each; laser excitation 488 nm at 0.6-1 W, CCD camera exposure 0.4 s) before addition of buffer alone (basal) or containing test compounds (either compound of formula I alone, agonist alone or agonist in the presence of various concentrations of compounds of formula I). Fluorescence measurements were then continued every 1 S for 120 S followed by every 4 S for 240 S.
# (§6) The measurements were typically made in two sequences:
# (§7) Compounds of formula I were tested usually in a concentration range from 10^−9 M to 10^−5 M.
# (§8) In the second round, performed one hour later (to allow for equilibration), Orexin A was tested either in the absence (calibration curves, Orexin A agonist controls) or in the presence of compounds of formula I to determine antagonism.
# [4] = target: T1, human orexin 2 receptor (hOx2R); assay: Calcium accumulation in cells (FLIPR), antagonism of orexin A, hOx2R; assay type: cell-based; conditions: for Kd: cells expressing human orexin 2 receptor, IC50 vs orexin A converted by Cheng and Prusoff correction
# Protocol: as §4, §5, §6, §7, §8
Compound,Kd [1] [nM],Kd [2] [nM],Kd [3] [nM],Kd [4] [nM],inhibition at 10 µM [3] [%],inhibition at 10 µM ([4]; measured at a concentration of 10 μM of compound (cells marked ^a)) [%]
"Cc1cccc(C(=O)N(C)[C@H](CCNC(=O)c2ccccn2)Cc2ccccc2)c1 [Example 96, Pyridine-2-carboxylic acid {(S)-3-[methyl-(3-methyl-benzoyl)-amino]-4-phenyl-butyl}-amide]",133,247,474,74,,
"CN(C(=O)c1cccc2c1OCC2)[C@H](CCNC(=O)c1ccccn1)Cc1ccccc1 [Example 46, Pyridine-2-carboxylic acid {(8)-3-[(2,3-dihydro-benzofuran-7-carbonyl)-methyl-amino]-4-phenyl-butyl}-amide]",870,397,1830,1000,,
"CCCN(C(=O)c1cc(C(F)(F)F)cc(C(F)(F)F)c1)[C@H](CCNC(=O)c1ccccn1)Cc1ccccc1 [Example 22, Pyridine-2-carboxylic acid {(S)-3-[(3,5-bis-trifluoromethyl-benzoyl)-propyl-amino]-4-phenyl-butyl}-amide]",214,> 10000,1570,105,,
"CN(C(=O)c1cccc2c1OCO2)[C@H](CCNC(=O)c1ccccn1)Cc1ccc(F)cc1 [Example 63, Pyridine-2-carboxylic acid [(S)-3-[(benzo[1,3]dioxole-4-carbonyl)-methyl-amino]-4-(4-fluoro-phenyl)-butyl]-amide]",5900,> 10000,,,0,24
"CN(C(=O)c1cccc2ccccc12)[C@H](CCNC(=O)c1nc2ccccc2n1C)Cc1ccc(F)cc1 [Example 24, 1-Methyl-1H-benzoimidazole-2-carboxylic acid {(S)-4-(4-fluoro-phenyl)-3-[methyl-(naphthalene-1-carbonyl)-amino]-butyl}-amide]",273,1390,124,5,,
"CN(C(=O)c1cc(C(F)(F)F)cc(C(F)(F)F)c1)C(CCNC(=O)c1ccc2c(ccn2C)c1)Cc1ccccc1 (stereo not shown) [Example 60, 1-Methyl-1H-indole-5-carboxylic acid {3-[(3,5-bis-trifluoromethyl-benzoyl)-methyl-amino]-4-phenyl-butyl}-amide]",3860,17500,3470,362,,
"COc1ccc(C(=O)N(C)[C@H](CCNC(=O)c2ccccn2)Cc2ccccc2)cc1 [Example 42, Pyridine-2-carboxylic acid {(S)-3-[(4-methoxy-benzoyl)-methyl-amino]-4-phenyl-butyl}-amide]",688,1730,909,826,,
"CN(C(=O)c1ccccc1)[C@@H](Cc1ccccc1)[C@@H](O)CNC(=O)c1ccccn1 [Example 95, Pyridine-2-carboxylic acid [(2S,3S)-3-(benzoyl-methyl-amino)-2-hydroxy-4-phenyl-butyl]-amide]",59,3440,3430,140,,
"Cc1cc(F)cc(C(=O)N(C)[C@H](CCNC(=O)c2cccn2C)Cc2ccccc2)c1 [Example 124, 1-Methyl-1H-pyrrole-2-carboxylic acid {(S)-3-[(3-fluoro-5-methyl-benzoyl)-methyl-amino]-4-phenyl-butyl}-amide]",39,599,710,13,,
"CN(C(=O)c1ccc2c(c1)OCO2)[C@H](CCNC(=O)c1nc2ccccc2n1C)Cc1ccccc1 [Example 31, 1-Methyl-1H-benzoimidazole-2-carboxylic acid {(S)-3-[(benzo[1,3]dioxole-5-carbonyl)-methyl-amino]-4-phenyl-butyl}-amide]",410,164,57,43,,
"1-Methyl-1H-pyrrole-2-carboxylic acid {(8)-3-[(3,5-difluoro-benzoyl)-methyl-amino]-4-phenyl-butyl}-amide [Example 118]",76,977,1070,55,,
"CN(C(=O)c1ccc(Br)cc1)[C@H](CCNC(=O)c1ccccn1)Cc1ccccc1 [Example 99, Pyridine-2-carboxylic acid {(S)-3-[(4-bromo-benzoyl)-methyl-amino]-4-phenyl-butyl}-amide]",822,1940,1110,115,,
"CCCN(C(=O)c1cccc2c1OCO2)[C@H](CCNC(=O)c1ccccn1)Cc1ccccc1 [Example 59, Pyridine-2-carboxylic acid {(S)-3-[(benzo[1,3]dioxole-4-carbonyl)-propyl-amino]-4-phenyl-butyl}-amide]",3620,3630,2040,562,,
"CN(C(=O)c1cc(C(F)(F)F)cc(C(F)(F)F)c1)C(CCNC(=O)c1ccccn1)Cc1ccc(Cl)cc1 (stereo not shown) [Example 16, Pyridine-2-carboxylic acid [3-[(3,5-bis-trifluoromethyl-benzoyl)-methyl-amino]-4-(4-chloro-phenyl)-butyl]-amide]",74,> 10000,1510,44,,
"CN(C(=O)c1ccc(C(F)(F)F)c(C(F)(F)F)c1)[C@H](CCNC(=O)c1ccccn1)Cc1ccccc1 [Example 77, Pyridine-2-carboxylic acid {(8)-3-[(3,4-bis-trifluoromethyl-benzoyl)-methyl-amino]-4-phenyl-butyl}-amide]",3710,8420,,581,25,
"CN(C(=O)c1cccc2ccccc12)[C@H](CCNC(=O)c1ccccn1)Cc1ccccc1 [Example 6, Pyridine-2-carboxylic acid {(S)-3-[methyl-(naphthalene-1-carbonyl)-amino]-4-phenyl-butyl}-amide]",20,25,31,57,,
